According to patent publication US8436020B2, “Processes for the preparation of piperidinic derivatives and pharmaceutic compositions containing the same” (priority 2004, dated 2013):
pIC50: −log10 of the molar value. Several values for one entry are separate records, joined by “and”; a condition that tells them apart may be missing. Identical values can stand only once. Entries after “also recorded” stand apart in the source; their conditions may differ. Like-named read-outs stand apart in the source and are kept apart here.

Key:
[1] = molecular target: cholinesterase in homogenized rat brain (Rattus norvegicus, UniProt P37136); conditions: for pIC50: rat brain homogenate
Sequence of cholinesterase in homogenized rat brain (P37136 32-614): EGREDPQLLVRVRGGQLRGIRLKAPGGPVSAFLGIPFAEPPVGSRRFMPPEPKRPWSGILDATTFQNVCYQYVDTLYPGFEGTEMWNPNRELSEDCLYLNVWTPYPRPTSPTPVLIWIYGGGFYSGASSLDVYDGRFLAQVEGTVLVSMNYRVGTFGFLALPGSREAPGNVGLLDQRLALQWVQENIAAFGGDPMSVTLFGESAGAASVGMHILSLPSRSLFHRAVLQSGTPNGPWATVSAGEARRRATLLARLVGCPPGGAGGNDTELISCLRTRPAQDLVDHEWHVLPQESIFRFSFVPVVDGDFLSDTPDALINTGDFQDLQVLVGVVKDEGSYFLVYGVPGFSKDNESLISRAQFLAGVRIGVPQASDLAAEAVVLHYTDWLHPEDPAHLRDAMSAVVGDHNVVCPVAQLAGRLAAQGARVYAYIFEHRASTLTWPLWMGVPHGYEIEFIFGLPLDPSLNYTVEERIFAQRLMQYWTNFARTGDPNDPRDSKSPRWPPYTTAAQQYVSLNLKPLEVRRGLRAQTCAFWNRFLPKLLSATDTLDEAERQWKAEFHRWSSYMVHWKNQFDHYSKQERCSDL
Procedure: In all experiments, cholinesterase-independent substrate hydrolysis (non specific) was determined by the inclusion of an experimental group treated with THA 20 μM. Appropriate tissues and reagents (em branco) were also included. Reaction velocities were determined in 3 or 4 repetitions by condition; mean values were calculated and expressed as percentages of relative activity in respect to control (solvent), after subtraction of the non-specific hydrolysis rate. The substances were tested in at least five different concentrations. From the resulting inhibition curve, values in the ranges […] 20%-80% were considered, with concentration limited to 500 μM. The IC50, based in a single-site model, was determined via linear regression.

[2] = test system: amnesia induced by scopolamine; experiment: Amnesia induced by scopolamine in the Morris water maze; assay type: in vivo, Wistar rats; conditions: rats, scopolamine 1 mg/kg, 4 days test
Procedure: A total of 39 Wistar rats (females—±200 g) were used.
After 30 minutes of intraperitoneal second administration (saline or scopolamine), the animals were challenged to localize an underwater platform in a round recipient containing opaque water (water maze) and the escape latency (in seconds) was computed. […] Tests were conducted twice a day, during 4 consecutive days.
When treated with scopolamine 30 minutes before the challenge, the animals could not learn the task and the escape latency approaches maximum values (150 s) in the fourth day of the test.

[3] = test system: amnesia induced by scopolamine; experiment: Amnesia induced by scopolamine in the inhibitory avoidance assay; assay type: in vivo, Swiss mice; conditions: mice
Description: A total of 120 adult male (25-30 g) Swiss mice were used. The animals were submitted to the inhibitory avoidance assay, which consists of a box with a base made of a grid connected to an electrostimulator (0.6 mA/3 s), and containing a wood platform (3 cm^3). Mice were put over this platform; being computed the latency (in seconds) until the animals put the four paws over the grid. In the first day of the test (“training”), animals would receive an adverse electrical stimulus (0.6 mA/3 s) whenever they stepped down to the grid (step down latency—SDL). At this stage, animals that would stay more than 15 seconds over the platform were discarded. Twenty-four hours later, the animals were re-introduced over the platform and the SDL computed (“retention”).

[4] = assay type: in vivo, mice
[5] = Cholinergic side effects (diarrhea) 30 minutes after administration, rats; assay type: in vivo
Description: Results from this assay can be seen in FIGS. 8-9.

[6] = Water solubility of the chlorhydrate derivatives
AChE [7] = molecular target: T1, AChE (Homo sapiens, UniProt P22303); conditions: read-out: IC50, AChE; cited from earlier work
T1 sequence (P22303 32-614): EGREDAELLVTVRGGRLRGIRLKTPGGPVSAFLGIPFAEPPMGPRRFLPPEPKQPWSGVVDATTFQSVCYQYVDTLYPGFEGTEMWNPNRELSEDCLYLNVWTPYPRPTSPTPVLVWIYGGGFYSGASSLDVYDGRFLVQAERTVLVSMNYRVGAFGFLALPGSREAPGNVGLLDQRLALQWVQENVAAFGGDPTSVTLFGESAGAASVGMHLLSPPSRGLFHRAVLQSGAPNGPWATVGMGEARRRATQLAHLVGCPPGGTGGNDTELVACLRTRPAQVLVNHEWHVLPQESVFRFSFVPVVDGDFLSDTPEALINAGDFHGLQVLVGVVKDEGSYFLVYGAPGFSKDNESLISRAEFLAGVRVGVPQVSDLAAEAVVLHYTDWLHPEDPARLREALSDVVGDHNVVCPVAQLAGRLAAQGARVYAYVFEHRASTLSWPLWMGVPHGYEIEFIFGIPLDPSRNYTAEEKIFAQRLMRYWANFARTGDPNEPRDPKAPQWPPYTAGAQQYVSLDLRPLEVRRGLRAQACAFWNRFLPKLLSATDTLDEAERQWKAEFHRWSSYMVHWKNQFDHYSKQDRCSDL

BuChE = BuChE (Homo sapiens, UniProt P06276); conditions: arisugacines and cyclopenine: no BuChE inhibition at this multiple; cyclophostin: BuChE inhibited at this multiple; cited from earlier work
Sequence of BuChE (P06276 29-602): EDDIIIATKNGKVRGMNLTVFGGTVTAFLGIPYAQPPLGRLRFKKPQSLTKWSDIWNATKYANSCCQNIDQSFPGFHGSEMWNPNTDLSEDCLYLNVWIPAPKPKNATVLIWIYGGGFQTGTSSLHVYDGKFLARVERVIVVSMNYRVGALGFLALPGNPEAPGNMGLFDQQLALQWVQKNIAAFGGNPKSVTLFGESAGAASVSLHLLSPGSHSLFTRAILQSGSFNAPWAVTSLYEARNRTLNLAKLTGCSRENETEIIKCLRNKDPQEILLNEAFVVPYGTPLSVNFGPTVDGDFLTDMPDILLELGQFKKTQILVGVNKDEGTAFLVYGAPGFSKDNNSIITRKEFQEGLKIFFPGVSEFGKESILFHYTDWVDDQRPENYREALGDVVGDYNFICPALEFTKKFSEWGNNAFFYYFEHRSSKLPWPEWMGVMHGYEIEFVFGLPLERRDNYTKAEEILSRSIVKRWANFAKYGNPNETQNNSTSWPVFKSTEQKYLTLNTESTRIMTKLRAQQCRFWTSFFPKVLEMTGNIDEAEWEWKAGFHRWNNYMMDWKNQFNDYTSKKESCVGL

AChE [8] = molecular target: T1, AChE; conditions: cited from earlier work; for pIC50: read-out: IC50 AChE, tacrine as positive control
[9] = molecular target: butyrylcholinesterase (BuChE) (Homo sapiens, UniProt P06276); conditions: read-out: IC50 BuChE; cited from earlier work
Sequence of butyrylcholinesterase (BuChE) (P06276 29-602): as above

AChE [10] = molecular target: T1, AChE; conditions: cited from earlier work
AChE [11] = molecular target: T1, AChE; conditions: read-out: IC50, AChE activity; cited from earlier work
AChE [12] = molecular target: T1, AChE; conditions: read-out: IC50, anticholinesterasic activity; cited from earlier work
[13] = read-out: Experimental IC50, cerebral cholinesterase inhibition, single independent experiment (one animal), acetylthiocholine 1 mM
[14] = read-out: Mean IC50, cerebral cholinesterase inhibition, mean of N independent experiments

Question: What does the source list for `CC(=O)CCCCCCCCCCCC[C@H]1CC[C@@H](OC(C)=O)[C@@H](C)N1.Cl` [LASSBio-767, 2-(R)-methyl-3-(R)—O-acetyl-6-(S)-(tetradecyl-13′-one)-piperidine chlorhydrate]?
Answer: AChE inhibitory capacity ex vivo [1]: remarkable anticholinesterasic activity; pIC50 [1, 13]: 5.32 and 5.35; pIC50 [1, 14]: 5.33; Reversion of amnesia induced by scopolamine, escape latency in water maze ([2]; 1 mg/kg): superior effect in relation to tacrine in the reversion of the induced amnesia by scopolamine; Reversion of amnesia induced by scopolamine, escape latency in water maze ([2]; 10 mg/kg): also observed; Reversion of amnesia induced by scopolamine, step down latency ([3]; 1 and 10 mg/kg, scopolamine 1 mg/kg): do not differ from the ones treated only with scopolamine; also recorded: did not present any effect on the amnesia induced by scopolamine; Cholinergic side effects and motor activity ([4]; 10 mg/kg): no cholinergic side effects and no interference in the motor activity; Occurrence of diarrhea [5]: Only animals treated with tacrine presented diarrhea; Solubility in water [6]: water-soluble

Question: Which results are given for `CC(=O)CCCCCCCCCCCC[C@H]1CC[C@@H](O)[C@@H](C)N1.Cl` [LASSBio-768, Espectaline Chlorhydrate]?
Answer: AChE inhibitory capacity ex vivo [1]: remarkable anticholinesterasic activity; pIC50 [1, 13]: 3.71 and 3.56; pIC50 [1, 14]: 3.63; Solubility in water [6]: water-soluble

Question: With `CC(=O)O[C@@H]1CC[C@H](CCCCCCCCCCCCC(C)O)N[C@@H]1C` (stereo partly drawn) [LASSBio-783, (2R,3R,6S)-3-acetoxy-6-(13-hydroxy-tetradecyl-2-methyl)-piperidine chlorhydrate] as the molecule, how does the pIC50 [1, 13] read?
Answer: 3.48 and 3.15 and 3.62

Question: What about the pIC50 [1, 14] of the same molecule?
Answer: 3.37

Question: With `CC(=O)CCCCCCCCCCCC[C@H]1CC[C@@H](OC(=O)OC(C)(C)C)[C@@H](C)N1.Cl` [LASSBio-822, 2-(R)-methyl-3-(R)—O-ter-butoxycarbonyl-6-(S)-(tetradecyl-13′-one)-piperidine chlorhydrate] as the molecule, how does the “AChE inhibitory capacity ex vivo” value [1] read?
Answer: remarkable anticholinesterasic activity

Question: And the pIC50 [1, 13]?
Answer: 5.04 and 4.79 and 4.70

Question: And the pIC50 [1, 14]?
Answer: 4.82

Question: And the “Reversion of amnesia induced by scopolamine, escape latency in water maze” value ([2]; 1 mg/kg)?
Answer: not capable of antagonize the amnesia induced by scopolamine

Question: And the “Reversion of amnesia induced by scopolamine, step down latency” value ([3]; 1 and 3 mg/kg, scopolamine 1 mg/kg)?
Answer: significant partial reversion of the amnesia induced by scopolamine; also recorded: capable of a significant reversion of the amnesia induced by scopolamine

Question: What about the Solubility in water [6] of the same molecule?
Answer: water-soluble

Question: With `Nc1c2c(nc3ccccc13)CCCC2` [Tacrine, tacrine, reference compound] as the molecule, how does the “Reversion of amnesia induced by scopolamine, escape latency in water maze” value ([2]; 1 mg/kg) read?
Answer: antagonize the induced amnesia by scopolamine, a significant effect in the fourth day of the study

Question: And the “Reversion of amnesia induced by scopolamine, step down latency” value ([3]; 5.6 mg/kg)?
Answer: complete reversion of the amnesia induced by scopolamine; also recorded: totally reversed the effect of scopolamine

Question: What about the “Mice with diarrhea and urination” value ([4]; 10 mg/kg I.P., mice) of the same molecule?
Answer: 70%

Question: And the “Other side effects observed” value ([4]; 10 mg/kg I.P., mice)?
Answer: hypothermia and diminished motor activity

Question: What about the “Cholinergic side effect parameters” value ([4]; concentrations superior to 30 mg/kg, mice) of the same molecule?
Answer: all checked parameters are altered

Question: What about the Animals with diarrhea ([5]; 1 mg/kg) of the same molecule?
Answer: 100%

Question: With `CN1C(=O)c2ccccc2NC(=O)[C@]12O[C@@H]2c1ccccc1` [cyclopenine] as the molecule, how does the pIC50 (AChE [7]) read?
Answer: 5.69

Question: And the “Concentration tested on BuChE as a multiple of the AChE IC50 (selectivity)” value (BuChE)?
Answer: > 2,000 times

Question: What does the source list for `CO[P@]1(=O)OC[C@H]2COC(=O)C2=C(C)O1` [cyclophostin]?
Answer: pIC50 (AChE [7]): 8.89; Concentration tested on BuChE as a multiple of the AChE IC50 (selectivity) (BuChE): 35 times

Question: With `CC[C@H](C)[C@H]1NC(=O)c2c1n(C)c1ccccc1c2=O` [quinolactacin A1] as the molecule, how does the pIC50 (AChE [8]) read?
Answer: 3.55

Question: What does the source list for `CC[C@H](C)[C@@H]1NC(=O)c2c1n(C)c1ccccc1c2=O` [quinolactacin A2]?
Answer: Inhibitory AChE activity relative to diastereoisomer A1 (AChE [8]): 14 times; pIC50 (AChE [8]): 4.70; pIC50 [9]: 3.19

Question: With `COc1cc(-c2cc3c(c(=O)o2)C[C@]2(O)[C@@]4(C)C(=O)C=CC(C)(C)[C@]4(O)CC[C@@]2(C)O3)cc(OC)c1OC` [territrem B] as the molecule, how does the pIC50 (AChE [7]) read?
Answer: 8.12

Question: What about the “Potency relative to neostigmine in AChE inhibition” value (AChE [10]) of the same molecule?
Answer: approximately 20 times

Question: With `COc1cc(-c2cc3c(c(=O)o2)C[C@]2(O)[C@@]4(C)C(=O)C=CC(C)(C)[C@]4(O)CC[C@@]2(C)O3)cc(OC)c1O` [territrem C] as the molecule, how does the pIC50 (AChE [7]) read?
Answer: 8.17

Question: With `C/C(=C\CNc1ncnc2nc[nH]c12)CO` [zeatine] as the molecule, how does the pIC50 (AChE [11]) read?
Answer: 3.96

Question: With `C=C1CC[C@H]2C(C)(C)[C@@H](O)CC[C@]2(C)[C@H]1CC[C@H]1C(=C)CC[C@H]2C(C)(C)[C@@H](O)CC[C@]12C` [α-onocerine, α-onocerin] as the molecule, how does the pIC50 (AChE [12]) read?
Answer: 5.28
